The values that follow are results of earlier work, collected in US20060057203A1 (priority 2002, published 2006).

The structures appear in SMILES notation.

For `NC(=O)N1c2ccccc2CC(=O)c2ccccc21` [oxcarbazepine], the solubility in water result is reported as “practically insoluble”.
